Measured values published in US7803769B2 (priority 2006, dated 2010).
“Also recorded” adds a separate entry of the source. Bridge positions count the residues as written; N and C are the ends. Ends that are not written are not given here. Peptide text beside a SMILES is read from it.

Tests used:
[1] = tested on: thapsigargin-induced IL-2 production in human whole blood
[2] = tested on: thapsigargin-induced IFN-g production in human whole blood; format: cell-based
[3] = tested on: IL-2R on CD4+ T cells in human whole blood; format: cell-based
human Kv1.3 channel = human Kv1.3 channel (Homo sapiens, UniProt P22001); format: cell-based
human Kv1.3 channel, sequence (P22001 whole entry): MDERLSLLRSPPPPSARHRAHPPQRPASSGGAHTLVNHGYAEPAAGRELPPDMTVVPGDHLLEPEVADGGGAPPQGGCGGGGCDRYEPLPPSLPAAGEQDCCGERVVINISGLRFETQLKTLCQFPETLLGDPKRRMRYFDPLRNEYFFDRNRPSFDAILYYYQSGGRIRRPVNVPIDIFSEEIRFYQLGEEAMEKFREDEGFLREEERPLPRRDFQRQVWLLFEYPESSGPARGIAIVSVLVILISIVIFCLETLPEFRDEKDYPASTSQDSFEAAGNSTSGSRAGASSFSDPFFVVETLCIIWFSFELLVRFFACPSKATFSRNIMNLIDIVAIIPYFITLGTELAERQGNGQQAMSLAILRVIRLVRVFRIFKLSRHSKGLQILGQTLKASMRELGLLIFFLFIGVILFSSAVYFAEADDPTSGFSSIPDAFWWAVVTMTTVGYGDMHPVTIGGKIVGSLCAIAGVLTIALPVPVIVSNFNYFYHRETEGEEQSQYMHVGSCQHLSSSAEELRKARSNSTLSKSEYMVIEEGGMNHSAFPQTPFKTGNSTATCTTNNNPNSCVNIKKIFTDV

[4] = tested on: CD40L on CD4+ T cells in human whole blood; format: cell-based

## CC[C@H](C)[C@@H]1NC(=O)[C@H](CCCCN)NC(=O)[C@@H](NC(=O)[C@H](CCCCN)NC(=O)[C@@H](NC(=O)[C@H](CC(N)=O)NC(=O)[C@@H](NC(=O)[C@@H](NC(=O)[C@@H](NC(=O)CN)C(C)C)[C@@H](C)CC)[C@@H](C)CC)C(C)C)CSSC[C@@H]2NC(=O)[C@H](CCCCN)NC(=O)CNC(=O)[C@H](Cc3ccccc3)NC(=O)[C@H](CCCNC(=N)N)NC(=O)[C@H](CCSC)NC(=O)CNC(=O)[C@H](C)NC(=O)[C@H](CCCCN)NC(=O)[C@H](CCCCN)NC(=O)[C@@H]3CSSC[C@@H](C(=O)N[C@H](C(=O)N4CCC[C@H]4C(=O)N[C@@H](CCCCN)C(=O)O)[C@@H](C)O)NC(=O)[C@H](Cc4c[nH]cn4)NC(=O)[C@H](CSSC[C@H](NC(=O)[C@H](CCC(N)=O)NC(=O)[C@H](CCCNC(=N)N)NC(=O)[C@H](CO)NC1=O)C(=O)N[C@@H](CC(C)C)C(=O)N[C@@H](CCC(=O)O)C(=O)N1CCC[C@H]1C(=O)N3)NC(=O)[C@H](CCCCN)NC(=O)CNC(=O)[C@H](CC(N)=O)NC(=O)[C@H](C)NC2=O [OSK1[Ala-29]] (H-GVIINVKCKISRQCLEPCKKAGMRFGKCANGKCHCTPK-OH; disulfide 8-28, 14-33, 18-35)
[1]
  whole blood cytokine response (IL-2 and IFNg), blockade in words: several orders of magnitude more potent

## Fc-L10-ShK[2-35]: human IgG1 Fc fused via 10 amino acid linker to ShK[2-35]
[2]
  thapsigargin-induced IFN-g production in human whole blood (in words): suppressed; also recorded: blocked
[3]
  thapsigargin-induced upregulation of IL-2R on T cells (in words): blocked
Human Kv1.3 channel
  block of human Kv1.3 current (in words): potently blocks human Kv1.3 current
[4]
  thapsigargin-induced upregulation of CD40L on T cells (in words): blocked

## SEQ ID No: 4989: OSK1 analog without beta strand 1 (des 1-7), Table 42 (CKISRQCLKPCKDAGMRFGKCMNGKCHC-NH2; ends and bridges not checked)
[1]
  whole blood cytokine response (IL-2 and IFNg), blockade in words: still retain activity in blocking inflammation

## IbTx: BKCa channel inhibitor iberiotoxin, purchased from Bachem (QFTDVDCSVSKECWSVCKDLFGVDRGKCMGKKCRCYQ; Definition of Artificial Sequence: Synthetic peptide) [reference compound]
[1]
  thapsigargin-induced IL-2 production in human whole blood (in words): no significant activity
[2]
  thapsigargin-induced IFN-g production in human whole blood (in words): no significant activity
[3]
  thapsigargin-induced upregulation of IL-2R on T cells (in words): no significant activity
[4]
  thapsigargin-induced upregulation of CD40L on T cells (in words): no significant activity

B1: FcLoop-L2-OsK1-L2: OsK1 inserted into the human IgG1 Fc-loop with 2-Gly linkers on both sides (protein)
chain: MDKTHTCPPCPAPELLGGPSVFLFPPKPKDTLMISRTPEVTCVVVDVSHEDPEVKFNWYVDGVEVHNAKTKPREEQYNSTYRVVSVLTVLHQDWLNGKEYKCKVSNKALPAPIEKTISKAKGQPREPQVYTLPPSRDELGGGVIINVKCKISRQCLEPCKKAGMRFGKCMNGKCHCTPKGGTKNQVSLTCLVKGFYPSDIAVEWESNGQPENNYKTTPPVLDSDGSFFLYSKLTVDKSRWQQGNVFSCSVMHEALHNHYTQKSLSLSPGK
modifications: Definition of Artificial Sequence: Synthetic protein
[1]
  whole blood cytokine response (IL-2 and IFNg), blockade in words: potent blockade of the whole blood cytokine response in this assay, with IC50 values in the pM range

B2: FcLoop-L2-ShK-L2: ShK inserted into the human IgG1 Fc-loop with 2-Gly linkers on both sides (protein)
chain: MDKTHTCPPCPAPELLGGPSVFLFPPKPKDTLMISRTPEVTCVVVDVSHEDPEVKFNWYVDGVEVHNAKTKPREEQYNSTYRVVSVLTVLHQDWLNGKEYKCKVSNKALPAPIEKTISKAKGQPREPQVYTLPPSRDELGGRSCIDTIPKSRCTAFQCKHSMKYRLSFCRKTCGTCGGTKNQVSLTCLVKGFYPSDIAVEWESNGQPENNYKTTPPVLDSDGSFFLYSKLTVDKSRWQQGNVFSCSVMHEALHNHYTQKSLSLSPGK
modifications: Definition of Artificial Sequence: Synthetic protein
[1]
  whole blood cytokine response (IL-2 and IFNg), blockade in words: potent blockade of the whole blood cytokine response in this assay, with IC50 values in the pM range

B3: L2-6H-L3-CH2-L10-OsK1 (1-38) (protein)
chain: MGGHHHHHHGGGPSVFLFPPKPKDTLMISRTPEVTCVVVDVSHEDPEVKFNWYVDGVEVHNAKTKPREEQYNSTYRVVSVLTVLHQDWLNGKEYKCKVSNKALPAPIEKTISGGGGSGGGGSGVIINVKCKISRQCLEPCKKAGMRFGKCMNGKCHCTPK
[1]; read-out: WB/IL-2 (IC50)
  IC50: 38.5 nM
[2]; read-out: WB/IFNg (IC50)
  IC50: 55.2 nM
